From publication PMC13198257, “An aerosolized dual-action autotaxin inhibitor-PPARγ agonist for the treatment of pulmonary fibrosis” (Cell Reports Medicine, 2026)

System: lung gene expression
Assay: RNA sequencing of lung tissue (BLM/EL244 vs BLM)
Type: in vivo, mouse
Conditions: lung tissue, BLM/EL244 vs BLM
Protocol: RNA quality was assessed using an Agilent TapeStation 4150 with the High Sensitivity […] ScreenTape (Agilent), according to the manufacturer’s protocols. For library preparation, the QuantSeq 3’mRNA-Seq Library Prep Kit (Lexogen) was used according to manufacturer’s instructions. Briefly, 500 ng of RNA from each sample was used for first-strand synthesis, followed by RNA template removal, and second-strand synthesis initiated by random primers. In-line barcodes were introduced at this step, and this was followed by magnetic bead-based purification. The resulting libraries were amplified for 15 cycles and re-purified, with quantity and quality assessed on a Qubit 4 Fluorometer with the Invitrogen Qubit dsDNA HS Assay and an Agilent Tapestation 4150 with the High Sensitivity D1000 assay kit, respectively. The quantified libraries were pooled equimolarly; 50ng of total library mix was used for Adapter Conversion PCR Amplification using the Universal Library Conversion Kit (App-A), Version: V1.0 (MGI Tech Co., Ltd.), according to the manufacturer’s instructions.
The quantity and quality of the purified adapter conversion PCR (AC-PCR) product were evaluated on a Qubit 4 Fluorometer with the Invitrogen Qubit dsDNA HS Assay and on an Agilent Tapestation 4150 with the High Sensitivity D1000 assay kit, respectively. This was followed by DNA denaturation, Single-Strand Circularisation, Enzymatic Digestion, Enzymatic Digestion Product Cleanup and Quality Control steps on 1 pmol of AC-PCR product, according to the Universal Library Conversion Kit (App-A) User Manual (Version: A3).
Finally, 60 fmol of ssCirDNA were used for DNB preparation and sequencing on a DNBSEQ-G400 platform at the BSRC Alexander Fleming Genomics Facility, using a G400 App-A FCS SE100 High-throughput Sequencing Set (MGI Tech Co., Ltd.), according to the manufacturer’s instructions.
Alignment of the FASTQ files was performed against the mouse genome build mm10 using a custom Bash script.[143] Read counting on the 3′ UTRs and differential expression analysis were conducted using the metaseqR2 bioconductor package.[144] Genes corresponding to the following biotypes were excluded: polymorphic_pseudogene, processed_transcript, pseudogene, IG_V_pseudogene, misc_RNA, IG_C_gene, IG_J_gene, IG_D_gene, IG_LV_gene, TR_V_gene, TR_V_pseudogene, TEC, and processed_pseudogene. Gene counts were normalized with DESEQ[145] through metaseqR2. Genes with more than 10 counts in at least 50% of the samples were kept for further processing. For differential expression analysis, the PANDORA algorithm[146] was used to estimate a meta p-value integrating the results from the DESEQ, DESEQ2,[147] edgeR,[148] limma,[149] NBPSeq,[150] and NOISeq[151] algorithms. All additional parameters were set to default values.
Pathway enrichment analysis was performed for the Gene Ontology Biological process (BP) and Molecular Function (MF) terms through GeneCodis 4.[152] The volcano plots, scatterplots, Venn diagrams, and dot plots were generated using the ggplot2 Bioconductor package.

With `O=C1NC(=O)C(Cc2ccc(OCCC3CCN(C(=O)OCc4cc(Cl)cc(Cl)c4)CC3)cc2)S1` (centres unmarked) [EL244, 3,5-dichlorobenzyl 4-(2-(4-((2,4-dioxothiazolidin-5-yl)methyl)phenoxy)ethyl)piperidine-1-carboxylate] the “Evi2a nFC” value was 0.57, the “Fam120b log2 nFC” value was 0.61 and the “Fam120b nFC” value was 1.53. The “Fbln5 log2 nFC” value was -0.64, the “Fbln5 nFC” value was 0.64 and the “Fcer1g log2 nFC” value was -0.80. For the same compound, the “Fcer1g nFC” value was 0.57, the “Flt1 log2 nFC” value was 0.58 and the “Flt1 nFC” value was 1.50. The “Fmod log2 nFC” value was -1.79, the “Fmod nFC” value was 0.29 and the “Fn1 log2 nFC” value was -1.69. The “Fn1 nFC” value was 0.31, the “Foxm1 log2 nFC” value was -1.56 and the “Foxm1 nFC” value was 0.34. For the same compound, the “Gas7 log2 nFC” value was -0.82, the “Gas7 nFC” value was 0.57 and the “Gatm log2 nFC” value was -1.79. The “Gatm nFC” value was 0.29, the “Gen1 log2 nFC” value was -1.63 and the “Gen1 nFC” value was 0.32. The “Gins2 log2 nFC” value was -1.57, the “Gins2 nFC” value was 0.34 and the “Gja4 log2 nFC” value was -0.81. For the same compound, the “Gja4 nFC” value was 0.57, the “Gm9844 log2 nFC” value was -0.79 and the “Gm9844 nFC” value was 0.58. The “Gm22774 log2 nFC” value was -2.05, the “Gm22774 nFC” value was 0.24 and the “Gm23451 log2 nFC” value was -1.99. The “Gm23451 nFC” value was 0.25, the “Gm49673 log2 nFC” value was -0.71 and the “Gm49673 nFC” value was 0.61. The “Gpc1 log2 nFC” value was -0.80, the “Gpc1 nFC” value was 0.57 and the “Gtse1 log2 nFC” value was -1.49. For the same compound, the “Gtse1 nFC” value was 0.36, the “Gxylt2 log2 nFC” value was -1.47 and the “Gxylt2 nFC” value was 0.36. The “Gyg log2 nFC” value was -0.60, the “Gyg nFC” value was 0.66 and the “H2-Aa log2 nFC” value was -0.68. The “H2-Aa nFC” value was 0.62, the “H2-Eb1 log2 nFC” value was -0.70 and the “H2-Eb1 nFC” value was 0.62. The “H2-M2 log2 nFC” value was -1.86, the “H2-M2 nFC” value was 0.27 and the “H2ac11 log2 nFC” value was -1.45. For the same compound, the “H2ac11 nFC” value was 0.37, the “H2ac12 log2 nFC” value was -1.44 and the “H2ac12 nFC” value was 0.37. The “Hc log2 nFC” value was 0.67, the “Hc nFC” value was 1.59 and the “Herpud1 log2 nFC” value was 0.64. The “Herpud1 nFC” value was 1.56, the “Hexb log2 nFC” value was -0.83 and the “Hexb nFC” value was 0.56. For the same compound, the “Hhip log2 nFC” value was -0.72, the “Hhip nFC” value was 0.61 and the “Hif1a log2 nFC” value was -0.69. The “Hif1a nFC” value was 0.62, the “Hist1h2ao log2 nFC” value was -1.60 and the “Hist1h2ao nFC” value was 0.33. For the same compound, the “Hist1h2ap log2 nFC” value was -2.04, the “Hist1h2ap nFC” value was 0.24 and the “Hmgn3 log2 nFC” value was -0.64. For the same compound, the “Hmgn3 nFC” value was 0.64, the “Ier3 log2 nFC” value was -0.63 and the “Ier3 nFC” value was 0.65. For the same compound, the “Igf1 log2 nFC” value was -1.60, the “Igf1 nFC” value was 0.33 and the “Igfbp4 log2 nFC” value was -0.58. The “Igfbp4 nFC” value was 0.67, the “Inhba log2 nFC” value was -2.22 and the “Inhba nFC” value was 0.21. For the same compound, the “Iqgap3 log2 nFC” value was -2.41, the “Iqgap3 nFC” value was 0.19 and the “Itgax log2 nFC” value was -0.80. For the same compound, the “Itgax nFC” value was 0.58, the “Jpt1 log2 nFC” value was -0.68 and the “Jpt1 nFC” value was 0.63. The “Kank3 log2 nFC” value was 0.61, the “Kank3 nFC” value was 1.53 and the “Kif2c log2 nFC” value was -1.67. For the same compound, the “Kif2c nFC” value was 0.32, the “Kif11 log2 nFC” value was -1.74 and the “Kif11 nFC” value was 0.30. For the same compound, the “Kif14 log2 nFC” value was -1.56, the “Kif14 nFC” value was 0.34 and the “Kif15 log2 nFC” value was -1.89. The “Kif15 nFC” value was 0.27, the “Kif20a log2 nFC” value was -2.52 and the “Kif20a nFC” value was 0.17. The “Knstrn log2 nFC” value was -2.52, the “Knstrn nFC” value was 0.17 and the “Lama1 log2 nFC” value was -2.43. The “Lama1 nFC” value was 0.19, the “Lap3 log2 nFC” value was -0.71 and the “Lap3 nFC” value was 0.61. For the same compound, the “Lbh log2 nFC” value was -0.66, the “Lbh nFC” value was 0.63 and the “Lgals3 log2 nFC” value was -0.80. For the same compound, the “Lgals3 nFC” value was 0.57, the “Lipa log2 nFC” value was -0.78 and the “Lipa nFC” value was 0.58. The “Lmnb2 log2 nFC” value was -0.70, the “Lmnb2 nFC” value was 0.62 and the “Lockd log2 nFC” value was -1.59. For the same compound, the “Lockd nFC” value was 0.33, the “Lox log2 nFC” value was -0.69 and the “Lox nFC” value was 0.62. The “Loxl1 log2 nFC” value was -0.69, the “Loxl1 nFC” value was 0.62 and the “Lpl log2 nFC” value was -0.68. The “Lpl nFC” value was 0.62, the “Ltbp2 log2 nFC” value was -1.44 and the “Ltbp2 nFC” value was 0.37. For the same compound, the “Map2 log2 nFC” value was -0.67, the “Map2 nFC” value was 0.63 and the “Mat2a log2 nFC” value was 0.59. The “Mat2a nFC” value was 1.50, the “Matk log2 nFC” value was -1.42 and the “Matk nFC” value was 0.37. For the same compound, the “Mcm2 log2 nFC” value was -0.80, the “Mcm2 nFC” value was 0.57 and the “Mcm3 log2 nFC” value was -0.84. The “Mcm3 nFC” value was 0.56, the “Mcm6 log2 nFC” value was -0.76 and the “Mcm6 nFC” value was 0.59. The “Melk log2 nFC” value was -1.65, the “Melk nFC” value was 0.32 and the “Mest log2 nFC” value was -2.27. For the same compound, the “Mest nFC” value was 0.21, the “Mex3a log2 nFC” value was -1.69 and the “Mex3a nFC” value was 0.31. The “Mgl2 log2 nFC” value was -0.72, the “Mgl2 nFC” value was 0.61 and the “Mif log2 nFC” value was -0.72. The “Mif nFC” value was 0.61, the “Mir147 log2 nFC” value was -1.44 and the “Mir147 nFC” value was 0.37. The “Mis18bp1 log2 nFC” value was -1.46, the “Mis18bp1 nFC” value was 0.36 and the “Mki67 log2 nFC” value was -1.62. The “Mki67 nFC” value was 0.33, the “Mmp2 log2 nFC” value was -0.81 and the “Mmp2 nFC” value was 0.57. For the same compound, the “Mmp12 log2 nFC” value was -2.48, the “Mmp12 nFC” value was 0.18 and the “Mmp13 log2 nFC” value was -1.80. The “Mmp13 nFC” value was 0.29, the “Ms4a7 log2 nFC” value was -1.49 and the “Ms4a7 nFC” value was 0.36. For the same compound, the “Msr1 log2 nFC” value was -1.44, the “Msr1 nFC” value was 0.37 and the “Mybpc2 log2 nFC” value was -2.17. The “Mybpc2 nFC” value was 0.22, the “Nans log2 nFC” value was -0.72 and the “Nans nFC” value was 0.61. For the same compound, the “Nek6 log2 nFC” value was -0.68, the “Nek6 nFC” value was 0.63 and the “Nipal3 log2 nFC” value was 0.64. The “Nipal3 nFC” value was 1.56, the “Npr2 log2 nFC” value was 0.59 and the “Npr2 nFC” value was 1.50. The “Ntrk2 log2 nFC” value was -1.60, the “Ntrk2 nFC” value was 0.33 and the “Nup93 log2 nFC” value was -0.64. For the same compound, the “Nup93 nFC” value was 0.64, the “Nusap1 log2 nFC” value was -2.02 and the “Nusap1 nFC” value was 0.25. The “Nwd2 log2 nFC” value was -1.51, the “Nwd2 nFC” value was 0.35 and the “Oaf log2 nFC” value was -0.81. The “Oaf nFC” value was 0.57, the “Olfml2b log2 nFC” value was -0.82 and the “Olfml2b nFC” value was 0.57. For the same compound, the “Ooep log2 nFC” value was -1.51, the “Ooep nFC” value was 0.35 and the “Otud7b log2 nFC” value was 0.61. For the same compound, the “Otud7b nFC” value was 1.53, the “P3h1 log2 nFC” value was -0.85 and the “P3h1 nFC” value was 0.55. The “P4ha3 log2 nFC” value was -2.15, the “P4ha3 nFC” value was 0.23 and the “Pbk log2 nFC” value was -2.73. The “Pbk nFC” value was 0.15, the “Pclaf log2 nFC” value was -2.08 and the “Pclaf nFC” value was 0.24. For the same compound, the “Pcmtd1 log2 nFC” value was 0.63, the “Pcmtd1 nFC” value was 1.54 and the “Pdgfc log2 nFC” value was -1.47. The “Pdgfc nFC” value was 0.36, the “Pdzd2 log2 nFC” value was 0.60 and the “Pdzd2 nFC” value was 1.52. For the same compound, the “Phactr2 log2 nFC” value was 0.63, the “Phactr2 nFC” value was 1.54 and the “Pianp log2 nFC” value was -1.75. The “Pianp nFC” value was 0.30, the “Pla1a log2 nFC” value was -1.42 and the “Pla1a nFC” value was 0.37. The “Pld4 log2 nFC” value was -0.66, the “Pld4 nFC” value was 0.63 and the “Plk1 log2 nFC” value was -1.89. For the same compound, the “Plk1 nFC” value was 0.27, the “Plk2 log2 nFC” value was -0.82 and the “Plk2 nFC” value was 0.57. For the same compound, the “Plpp3 log2 nFC” value was 0.65, the “Plpp3 nFC” value was 1.57 and the “Plxdc2 log2 nFC” value was 0.61. For the same compound, the “Plxdc2 nFC” value was 1.53, the “Pmepa1 log2 nFC” value was -0.76 and the “Pmepa1 nFC” value was 0.59. For the same compound, the “Pole2 log2 nFC” value was -1.50, the “Pole2 nFC” value was 0.35 and the “Pole log2 nFC” value was -1.58. The “Pole nFC” value was 0.34, the “Por log2 nFC” value was 0.66 and the “Por nFC” value was 1.58. The “Ppa1 log2 nFC” value was -0.71, the “Ppa1 nFC” value was 0.61 and the “Ppp1r9a log2 nFC” value was 0.61. For the same compound, the “Ppp1r9a nFC” value was 1.53, the “Prc1 log2 nFC” value was -2.31 and the “Prc1 nFC” value was 0.20. The “Prcp log2 nFC” value was -0.69, the “Prcp nFC” value was 0.62 and the “Prdx1 log2 nFC” value was -0.62. For the same compound, the “Prdx1 nFC” value was 0.65 and the “Prrx2 log2 nFC” value was -1.75.
